Literature values, collected in patent publication US20200093858A1, “VAGINAL BIOADHESIVE BORIC ACID FORMULATION AND ITS PREPARATION METHOD” (Halo Science LLC, priority 2015, published 2020).
Where two headings read alike, the source gives them in different places.

Experiments:
common fungi or bacteria = settings: in urine
C. albicans = settings: 2×10^6 per mL of C. albicans, in vitro
T. glabrata = settings: refractory T. glabrata vaginitis
[1] = 600 mg per day, therapeutic course of two weeks
[2] = system: recurrent bacterial vaginosis; settings: for cure rate / cumulative cure rate: boric acid in addition to nitroimidazole

Question: With OB(O)O [boric acid] as the molecule, how does the “boric acid concentration that could suppress almost all common fungi or bacteria” value (common fungi or bacteria) read?
Answer: 10 to 20 mg/mL

Question: And the “boric acid concentration that inhibited proliferation of C. albicans” value (C. albicans)?
Answer: 4%

Question: And the cure rate (vulvovaginal candidiasis; boric acid treatment of vulvovaginal candidiasis)?
Answer: > 90%

Question: What about the “efficacy compared with conazoles” value (vulvovaginal candidiasis; treatment for 14 days) of the same molecule?
Answer: equivalent to conazoles

Question: And the Clinical efficacy (T. glabrata)?
Answer: ≤ 81%

Question: What about the mycological eradication rate (T. glabrata) of the same molecule?
Answer: ≤ 77%

Question: What about the adverse reactions [1] of the same molecule?
Answer: did not cause adverse reactions

Question: What about the adverse reactions ([2]; in vivo) of the same molecule?
Answer: No adverse reactions were observed

Question: What about the cure rate ([2]; week 7) of the same molecule?
Answer: 88%

Question: What about the cure rate ([2]; week 12) of the same molecule?
Answer: 92%

Question: And the cumulative cure rate ([2]; week 16)?
Answer: 78%

Question: And the cumulative cure rate ([2]; week 28)?
Answer: 65%
